Experimental data: PubChem BioAssay AID588666 (The Scripps Research Institute Molecular Screening Center, 2011)
Activity calls are given as the source filed them.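 How the source made its calls: active means MAPK1 protein level shifted by at least 30% from DMSO-treated cells, either down or up; inactive means shift under 30% either way.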

Target: Mitogen-activated protein kinase 1 (Homo sapiens) (UniProt P28482)
Assay: reduction of total ERK1/2 protein levels, late-stage follow-up, counter-screen for KLF5 inhibitor project, SW620 cells, chemiluminescent western blot, powder samples (AID 588666)
Details: ERK1/2 western blot, 24 h, at 10 µM; for inhibition: stronger effect = higher value; for fold change: measured here: ERK1/2 protein fold change vs DMSO, stronger effect = lower value

Sequence of Mitogen-activated protein kinase 1 (Homo sapiens) (P28482 whole entry, looked up): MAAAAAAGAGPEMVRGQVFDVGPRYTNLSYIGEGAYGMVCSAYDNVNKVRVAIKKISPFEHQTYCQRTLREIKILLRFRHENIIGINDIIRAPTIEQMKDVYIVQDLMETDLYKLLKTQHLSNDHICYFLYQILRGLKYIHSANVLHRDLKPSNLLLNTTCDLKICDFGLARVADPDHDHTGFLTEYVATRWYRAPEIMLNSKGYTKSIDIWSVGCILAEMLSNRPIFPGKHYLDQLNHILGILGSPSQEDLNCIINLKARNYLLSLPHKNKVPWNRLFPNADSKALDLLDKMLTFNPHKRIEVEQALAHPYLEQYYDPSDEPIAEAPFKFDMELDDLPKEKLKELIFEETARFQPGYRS

Row | SMILES | inhibition | fold change
1 | CN(C(=O)CNC(=O)/C=C/c1cccc(Cl)c1)C1CCS(=O)(=O)CC1 | -9.9% (inactive) | 1.1
2 | CN(C(=O)CNC(=O)/C=C/c1cccc(Cl)c1)C1CCS(=O)(=O)C1 (stereo unspecified) | 26.9% (inactive) | -1.37
3 | CN(C(=O)COC(=O)/C=C/c1cccc([N+](=O)[O-])c1)C1CCS(=O)(=O)C1 (stereo unspecified) | 14.8% (inactive) | -1.17
